Entries after “also recorded” stand apart in the source; their conditions may differ. No end group written: not given here.
Tested on: CA1 pyramidal neurons in acute hippocampal slices from Hgsnat-Geo and Hgsnat^P304L mice
Assay: Miniature excitatory postsynaptic currents (mEPSC), whole cell voltage clamp in acute hippocampal slices
Assay type: cell-based, mouse
Conditions: for mEPSC amplitude and frequency deficits: Hgsnat-Geo and Hgsnat^P311L (P304L) slices
Protocol: Models and developmental time points: Hippocampal slices from Hgsnat-Geo and Hgsnat^P304L mice; P14-20 and P45-60.
Method: Whole cell voltage clamp electrophysiology recordings (miniature synaptic currents) were conducted on CA1 pyramidal neurons in acute hippocampal slices.
Acute hippocampal slices were prepared as follows. Briefly, animals were anaesthetized deeply with isoflurane and decapitated. The brain was dissected carefully and transferred rapidly into an ice-cold (0-4° C.) solution containing the following (in mM): 250 sucrose, 2 KCl, 1.25 NaH2PO4, 26 NaHCO3, 7 MgSO4, 0.5 CaCl2 and 10 glucose, pH 7.4. The solution was oxygenated continuously with 95% O2 and 5% CO2, 330-340 mOsm/L. Transverse hippocampal slices (thickness, 300 μm) were cut using a vibratome (VT1000S; Leica Microsystems), transferred to a bath at room temperature (23° C.) with standard ACSF at pH 7.4 containing the following (in mM): 126 NaCl, 3 KCl, 1 NaH2PO^4, 25 NaHCO3, 2 MgSO4, 2 CaCl2), 10 glucose, continuously saturated with 95% 02 and 5% CO2 and allowed to recover for 1 h. During the experiments, slices were transferred to the recording chamber at physiological temperature (30-33° C.) continuously perfused with standard ACSF, as described above, at 2 ml/min. Pyramidal CA1 neurons from the hippocampus were identified visually using a 40× water immersion objective. Whole-cell patch-clamp recordings were obtained from single cells in voltage- or current-clamp mode and only 1 cell per slice was recorded to enable post-hoc identification and immunohistochemical processing. Recording pipettes (4-6 MΩ) were filled with a K-gluconate based solution for voltage-clamp recordings (in mM): 130 K-gluconate, 10 KCl, 5 diNa-phosphocreatine. 10 HEPES, 2.5 MgCl2, 0.5CaCl2,1 EGTA, 3 ATP-Tris, 0.4 GTP-Li, 0.3% biocytin, pH 7.2-7.4, 280-290 mOsm/L.
After obtaining whole cell configuration, passive membrane properties were monitored for 5 min and current clamp recordings were done to measure action potential characteristics. […]. Cells were voltage clamped at −70 mV for mEPSCs recording and then held at 0 mV (calculated from the reversal potential of Cl) for mIPSCs recording. Data acquisition (filtered at 2-3 kHz and digitized at 15 kHz; Digidata 1440A, Molecular Devices, CA, USA) was performed using the Axopatch 200B amplifier and the Clampex 10.6 software (Molecular Devices). Both mEPSCs and mIPSCs were recorded for 7 min and a running template on a stable baseline (minimum of 30 events) was used for the analysis of miniature events on MiniAnalysis. Clampfit 10.2 software was used for analysis of action potential characteristics and other passive membrane properties.
This example tested AVP6's effect on synaptic signaling in acute hippocampal slices of MPS IIIC (both Hgsnat^Geo and Hgsnat^P304L) mice. […]

Substance: AVP6: N-terminally acetylated Semax, a nootropic peptide having the amino acid sequence of MEHFPGP (SEQ ID NO:1) (Ac-MEHFPGP)
- mEPSC amplitude and frequency deficits (10 μM bath application, P14-20): recovered deficits in mEPSC amplitude and frequency; also recorded: deficit is rescued
- mEPSC amplitude and frequency deficits (10 μM bath application, P45-60): recovered deficits in mEPSC amplitude and frequency; also recorded: deficit is rescued
- mEPSC amplitude and frequency in WT animals (10 μM bath application, P45-60, WT slices): trend for an increase
- reduced amplitude and frequency of mEPSC (acute bath application, MPSIIIC mouse hippocampal slices (Example 1, FIG. 1)): significant restoration

Source: patent US20240043473A1, “NOOTROPIC PEPTIDES FOR TREATING LYSOSOMAL STORAGE DISEASES” (Phoenix Nest Inc., priority 2021, published 2024)
